Results as given in PubChem BioAssay AID330 (DTP/NCI, 2004).
“And” between values parts separate entries of the source, which are not always exact repeats. Equal entries are not always repeated. Toxic doses and inconclusive results are not listed.

Tested on: P388 leukemia ip, CD2F1 mice, survival T/C
Test: NCI In Vivo Anticancer Drug Screen. Data for tumor model P388 Leukemia (intraperitoneal) in CD2F1 (CDF1) mice
Conditions: endpoint: median survival time, higher = longer survival
Method in brief: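 Mice carrying the transplanted tumor received test compound or vehicle. Survival was recorded in each group, and the value is the treated-group measurement divided by that of the vehicle-treated control group.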

[1] = dose: 60.0 mg/kg/injection, schedule: Q01DX005 (ip), vehicle: saline with Tween-80
[2] = dose: 120.0 mg/kg/injection, schedule: Q01DX005 (ip), vehicle: saline with Tween-80
[3] = dose: 240.0 mg/kg/injection, schedule: Q01DX005 (ip), vehicle: saline with Tween-80
[4] = dose: 6.25 mg/kg/injection, schedule: Q01DX009 (ip), vehicle: Klucel (hydroxypropylcellulose) (HPC)
[5] = dose: 12.5 mg/kg/injection, schedule: Q01DX009 (ip), vehicle: Klucel (hydroxypropylcellulose) (HPC)
[6] = dose: 25.0 mg/kg/injection, schedule: Q01DX009 (ip), vehicle: Klucel (hydroxypropylcellulose) (HPC)
[7] = dose: 50.0 mg/kg/injection, schedule: Q01DX009 (ip), vehicle: Klucel (hydroxypropylcellulose) (HPC)
[8] = dose: 100.0 mg/kg/injection, schedule: Q01DX009 (ip), vehicle: Klucel (hydroxypropylcellulose) (HPC)
[9] = dose: 50.0 mg/kg/injection, schedule: Q01DX009 (ip), vehicle: saline with Tween-80
[10] = dose: 100.0 mg/kg/injection, schedule: Q01DX009 (ip), vehicle: saline with Tween-80
[11] = dose: 200.0 mg/kg/injection, schedule: Q01DX009 (ip), vehicle: saline with Tween-80

CC[C@@H]1O[C@@H]([C@@H]2CC[C@](O)([C@]3(C)CC[C@@H]([C@@H](C)[C@@]4(O)CC[C@H](C)[C@@H](C[C@@]5(O)O[C@@H]([C@@H](C)[C@H](O)C[C@H]6CC[C@H](C)[C@@H]([C@@H](C)C(=O)O)O6)CC[C@@H]5C)O4)O3)O2)CC[C@@]1(C)O
T/C (dose: 0.12 mg/kg/injection, schedule: Q01DX009 (ip), vehicle: saline with Tween-80): 109 % of control | T/C (dose: 0.25 mg/kg/injection, schedule: Q01DX009 (ip), vehicle: saline with Tween-80): 111 % of control

Cc1ccc(S(=O)(=O)C(C#N)(Cc2c[nH]c3ccccc23)Cc2c[nH]c3ccccc23)cc1
T/C (dose: 50.0 mg/kg/injection, schedule: Q01DX005 (ip), vehicle: Klucel (hydroxypropylcellulose) (HPC)): 107 % of control | T/C (dose: 100.0 mg/kg/injection, schedule: Q01DX005 (ip), vehicle: Klucel (hydroxypropylcellulose) (HPC)): 101 % of control | T/C (dose: 200.0 mg/kg/injection, schedule: Q01DX005 (ip), vehicle: Klucel (hydroxypropylcellulose) (HPC)): 98 % of control

COc1ccc(C2CC(C)(N3CCCC3)Oc3cc4c(cc32)OCO4)cc1 (stereo not given)
T/C [1]: 101 % of control | T/C [2]: 92 % of control | T/C [3]: 98 % of control

CN(C)c1ccc(N=C2C=CC(=[N+](C)C)C=C2)cc1
T/C (dose: 3.13 mg/kg/injection, schedule: Q01DX009 (ip), vehicle: Klucel (hydroxypropylcellulose) (HPC)): 90 % of control | T/C [4]: 93 % of control | T/C [5]: 101 % of control | T/C [6]: 114 % of control

N#CNc1nc2ccccc2[nH]1
T/C [4]: 100 % of control | T/C [5]: 103 % of control | T/C [6]: 108 % of control | T/C [7]: 101 % of control | T/C [8]: 100 % of control

O=C(CCc1c[nH]c2ccccc12)c1ccccc1O
T/C [1]: 98 % of control | T/C [2]: 100 % of control | T/C [3]: 92 % of control

C[CH2][Ge]([CH2]C)[CH2]C.C[CH2][Ge]([Cl])[CH2]C.C[CH2][Ge][CH2]C
T/C (dose: 50.0 mg/kg/injection, schedule: Q01DX009 (ip), vehicle: saline): 104 % of control | T/C (dose: 100.0 mg/kg/injection, schedule: Q01DX009 (ip), vehicle: saline): 103 % of control | T/C (dose: 200.0 mg/kg/injection, schedule: Q01DX009 (ip), vehicle: saline): 103 % of control

O=C(CCCC(=O)Nc1ccc2[nH]c3ccccc3c(=O)c2c1)Nc1ccc2[nH]c3ccccc3c(=O)c2c1
T/C (dose: 60.0 mg/kg/injection, schedule: Q01DX005 (ip), vehicle: Klucel (hydroxypropylcellulose) (HPC)): 92 % of control | T/C (dose: 120.0 mg/kg/injection, schedule: Q01DX005 (ip), vehicle: Klucel (hydroxypropylcellulose) (HPC)): 94 % of control

[O-]/[N+](=C\c1ccccc1)CC1(O)CCCCC1
T/C [9]: 90 % of control | T/C [10]: 88 % of control | T/C [11]: 99 % of control

C=CCNC(=S)Nc1sc2c(c1C(=O)OCC)CCCC2
T/C [7]: 93 % of control | T/C [8]: 94 % of control | T/C (dose: 200.0 mg/kg/injection, schedule: Q01DX009 (ip), vehicle: Klucel (hydroxypropylcellulose) (HPC)): 89 % of control

CNC(=O)OCc1c(COC(=O)NC)c(-c2cccc(F)c2F)n2c1CCC2
T/C (dose: 12.5 mg/kg/injection, schedule: Q01DX009 (ip), vehicle: distilled water + Tween-80): 171 % of control | T/C (dose: 25.0 mg/kg/injection, schedule: Q01DX009 (ip), vehicle: distilled water + Tween-80): 156 % of control and 159 % of control

CCCCCCC(=O)CC(SCC)c1c(Cl)cccc1Cl (stereo not given)
T/C [9]: 89 % of control | T/C [10]: 98 % of control | T/C [11]: 100 % of control

c1ccc2c(c1)C1=NCCN1c1ccccc1-2
T/C (dose: 12.0 mg/kg/injection, schedule: Q01DX009 (ip), vehicle: saline with Tween-80): 109 % of control | T/C (dose: 12.0 mg/kg/injection, schedule: Q01DX009 (ip), vehicle: saline): 88 % of control | T/C (dose: 18.0 mg/kg/injection, schedule: Q01DX009 (ip), vehicle: saline with Tween-80): 113 % of control | T/C (dose: 18.0 mg/kg/injection, schedule: Q01DX009 (ip), vehicle: saline): 105 % of control | T/C (dose: 27.0 mg/kg/injection, schedule: Q01DX009 (ip), vehicle: saline with Tween-80): 118 % of control | T/C (dose: 27.0 mg/kg/injection, schedule: Q01DX009 (ip), vehicle: saline): 111 % of control | T/C (dose: 40.0 mg/kg/injection, schedule: Q01DX009 (ip), vehicle: saline with Tween-80): 122 % of control

COC(=O)C(N)C(C)C (stereo not given)
T/C (dose: 50.0 mg/kg/injection, schedule: Q01DX005 (ip), vehicle: saline): 100 % of control | T/C (dose: 100.0 mg/kg/injection, schedule: Q01DX005 (ip), vehicle: saline): 92 % of control
